We go through ten compounds from US20030073850A1, “4-Imidazole derivatives of benzyl and restricted benzyl sulfonamides, sulfamides, ureas, carbamates, and amides and their use” (priority 1998, published 2003).

Structures are written as SMILES. Read-outs that look alike come from different tables or passages of the source.

By Ki is commonly meant the dissociation constant of the complex between target and ligand, obtained from inhibition or displacement. What is called melting point is the temperature of the solid-liquid transition.

Data set [1] concerns the target T1, α1b (hamster receptor expressed in mouse fibroblasts) (Mesocricetus auratus, UniProt P18841).
T1 construct: expressed in transfected cells; host or cells: mouse fibroblasts
T1 sequence (P18841 1-515): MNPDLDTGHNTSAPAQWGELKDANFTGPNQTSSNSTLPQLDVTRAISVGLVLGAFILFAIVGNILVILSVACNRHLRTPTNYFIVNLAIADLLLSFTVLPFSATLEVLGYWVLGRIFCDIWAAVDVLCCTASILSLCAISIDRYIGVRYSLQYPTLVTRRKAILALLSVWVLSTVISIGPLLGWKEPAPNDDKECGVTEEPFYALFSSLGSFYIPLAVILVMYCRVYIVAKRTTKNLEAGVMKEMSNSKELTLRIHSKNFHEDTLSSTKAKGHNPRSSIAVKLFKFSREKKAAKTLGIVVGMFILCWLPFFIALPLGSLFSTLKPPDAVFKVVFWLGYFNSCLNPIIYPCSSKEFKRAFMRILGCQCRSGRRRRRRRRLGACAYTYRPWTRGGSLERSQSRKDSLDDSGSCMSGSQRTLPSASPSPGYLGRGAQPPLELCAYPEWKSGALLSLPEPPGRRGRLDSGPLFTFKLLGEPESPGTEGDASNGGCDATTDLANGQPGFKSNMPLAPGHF
Nature of the data set: Radioligand binding, [3H]-prazosin, α1b. In outline: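 [3H]-prazosin radioligand displacement; α1A from rat submaxillary gland tissue, α1b hamster and α1d rat receptors each expressed in mouse fibroblasts.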

Data set [2] has as its system anesthetized dogs. As to the kind of experiment: Intraurethral pressure (IUP) in anesthetized dogs. Format: in vivo, dog. Conditions: for ED (5 mm Hg): Canis lupus familiaris, iv dose causing a maximum increase in IUP of 5 mm Hg, anesthetized female Beagle dogs, read-out: Mean IUP ED5; for Mean Selectivity Ratio MAP ED20/IUP ED5: anesthetized dogs, iv. The text has this:
(§1) Female Beagle dogs (Marshall Farms, North Rose, N.Y.) greater that 2 years of age and weighing between 12 and 15 kg were used in these studies. At least 2 weeks prior to any agonist dosing, dogs were instrumented for the chronic measurement of arterial blood pressure by implanting a telemetry transducer/transmitter (TA11PA-C40, Data Sciences International, St. Paul, Minn.) into a carotid artery.
(§2) On the test day, dogs fasted since the previous afternoon were pre-anesthetized with thiopental sodium 15 mg/kg i.v. (Pentothal™, Abbott) and intubated. Anesthesia was maintained by allowing the dog to spontaneously breathe a mixture of isoflurane (2.5 to 3 volume %) and oxygen delivered by a Narkomed Standard anesthesia system (North American Drager, Telford, Pa.). An Abbocath-T™ i.v. catheter (18-G, Abbott) was inserted into the cephalic vein for the administration of agonists. A telemetry receiver (RA1310, DataSciences) was placed under the head of each dog and was interfaced to a computerized data acquisition system (Modular Instruments Inc.(MI2), Malvern, Pa.) which allowed for the continuous calibrated recording of arterial blood pressure which was electronically filtered to determine its mean value (MAP).
Dogs with chronic telemetry implants anesthetized as described above were placed in dorsal recumbency and a balloon catheter was inserted into the urethral orifice and advanced approximately 15 cm until the tip was well inside the bladder. The balloon was then inflated with 1 ml of room air and the catheter slowly withdrawn until resistance (corresponding to the bladder neck) was evident. The balloon was then deflated and the catheter withdrawn additional 2 cm. The balloon was then reinflated and its catheter port connected to a Gould Statham P23Dd pressure transducer interfaced to a computerized data acquisition system (Modular Instruments, Inc., Malvern, Pa.) for the measurement of the intraurethral pressure. Increasing iv doses of test agonists were administered and the maximum effect of each dose on IUP was recorded. The effect of each dose was allowed to return to baseline before the next dose was given.
(§3) From the resulting dose response curve, an ED5 value, for the dose causing a maximum increase in IUP of 5 mm Hg, could be estimated. An ED20 value for the dose causing a maximum increase in MAP of 20 mm Hg could also be estimated. A selectivity ratio of MAP ED20 vs. IUP ED, was calculated.

For data set [3], the system named is anesthetized dogs. Nature of the data set: Mean arterial pressure (MAP) in anesthetized dogs. Format: in vivo, dog. Particulars: iv dose causing a maximum increase in MAP of 20 mm Hg, anesthetized female Beagle dogs.
From the text: as §1, §2, §3

In data set [4] the target is T2, α1A (rat submaxillary gland) (Rattus norvegicus, UniProt P43140).
T2 construct: α1A (rat submaxillary gland); from tissue; host or cells: rat submaxillary gland
T2 sequence (P43140 1-466): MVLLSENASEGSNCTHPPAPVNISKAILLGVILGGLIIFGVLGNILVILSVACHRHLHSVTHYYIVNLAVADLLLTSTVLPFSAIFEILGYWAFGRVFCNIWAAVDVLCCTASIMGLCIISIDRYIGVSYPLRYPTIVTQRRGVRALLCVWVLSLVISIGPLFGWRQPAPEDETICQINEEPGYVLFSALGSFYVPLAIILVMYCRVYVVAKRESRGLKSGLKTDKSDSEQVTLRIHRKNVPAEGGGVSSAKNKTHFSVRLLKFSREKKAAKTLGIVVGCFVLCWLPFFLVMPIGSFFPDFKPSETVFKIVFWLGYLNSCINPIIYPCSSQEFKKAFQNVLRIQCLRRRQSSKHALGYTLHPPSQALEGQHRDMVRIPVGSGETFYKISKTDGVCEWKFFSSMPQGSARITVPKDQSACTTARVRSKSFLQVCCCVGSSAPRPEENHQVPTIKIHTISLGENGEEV
As to the kind of experiment: Radioligand binding, [3H]-prazosin, α1A. The method, then: (§4) For purposes of discussing a, adrenoceptor subtypes, the IUPHAR convention of using lower case letters to define molecular clones and upper case letters to indicate pharmacologically defined adrenoceptors has been followed. Compounds of formula I were evaluated in radioligand binding assays specific for α1A (rat submaxillary gland), α1b (hamster receptor expressed in mouse fibroblasts) and α1d (rat receptor expressed in mouse fibroblasts) using [^3H]-prazosin as the radioligand as described in Knepper, et al. J. Pharm.

Data set [5] has as its target T3, α1d (rat receptor expressed in mouse fibroblasts) (Rattus norvegicus, UniProt P23944).
T3 construct: expressed in transfected cells; host or cells: mouse fibroblasts
T3 sequence (P23944 1-561): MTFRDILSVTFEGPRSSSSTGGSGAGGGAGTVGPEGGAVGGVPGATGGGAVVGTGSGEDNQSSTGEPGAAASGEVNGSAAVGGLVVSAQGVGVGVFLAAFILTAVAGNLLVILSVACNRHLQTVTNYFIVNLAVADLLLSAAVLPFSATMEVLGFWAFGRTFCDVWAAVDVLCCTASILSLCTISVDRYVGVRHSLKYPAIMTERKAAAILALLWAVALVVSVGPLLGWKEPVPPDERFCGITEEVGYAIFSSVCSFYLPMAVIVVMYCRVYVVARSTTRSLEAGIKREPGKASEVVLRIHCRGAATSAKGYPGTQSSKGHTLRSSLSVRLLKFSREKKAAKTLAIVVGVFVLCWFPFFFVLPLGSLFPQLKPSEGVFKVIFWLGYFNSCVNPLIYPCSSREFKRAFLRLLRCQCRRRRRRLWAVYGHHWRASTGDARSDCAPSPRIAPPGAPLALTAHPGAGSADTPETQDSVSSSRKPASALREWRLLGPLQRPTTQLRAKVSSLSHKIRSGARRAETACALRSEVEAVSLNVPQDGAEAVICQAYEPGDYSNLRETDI
As to the kind of experiment: Radioligand binding, [3H]-prazosin, α1d. The procedure: as §4

A further data set addresses T4, α1A (rabbit urethra) (Oryctolagus cuniculus, UniProt O02824).
T4 construct: tested for α1A functional activity using rabbit urethra; from tissue; host or cells: rabbit urethra (female New Zealand white rabbits)
T4 sequence (O02824 1-466): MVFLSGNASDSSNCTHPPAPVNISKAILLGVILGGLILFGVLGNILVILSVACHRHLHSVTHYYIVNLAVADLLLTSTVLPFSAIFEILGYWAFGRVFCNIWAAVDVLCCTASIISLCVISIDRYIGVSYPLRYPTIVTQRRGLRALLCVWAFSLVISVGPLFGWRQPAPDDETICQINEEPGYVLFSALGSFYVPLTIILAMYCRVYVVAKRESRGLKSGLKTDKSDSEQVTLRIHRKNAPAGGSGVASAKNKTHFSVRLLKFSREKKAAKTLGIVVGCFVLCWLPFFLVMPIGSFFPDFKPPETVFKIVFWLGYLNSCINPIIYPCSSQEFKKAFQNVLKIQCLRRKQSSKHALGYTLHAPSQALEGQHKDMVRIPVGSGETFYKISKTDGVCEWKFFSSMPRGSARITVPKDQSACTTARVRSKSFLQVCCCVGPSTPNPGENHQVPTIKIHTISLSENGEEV
As to the kind of experiment: Agonist tissue response, contraction of rabbit urethra. The class given is biochemical. Conditions: values without asterisk, read-out: Agonist Tissue Response (pD2) α1A (rab ureth) (converted). The method, then: Most of the compounds were tested for α1A functional activity using rabbit urethra as follows. Female New Zealand white rabbits (2.0-3.5 Kg) were sedated with CO2 and decapitated. […] Subsequent experimental conditions were as described above for the other tissues. Agonist concentration response curves were cumulative except for the vas deferens assay in which the transient response made such measurements impractical.

The mark [6] stands for this setting: hamster receptor expressed in mouse fibroblasts, [3H]-prazosin, read-out: Radioligand Binding Ki α1b (Hamster).
The mark [7] stands for this setting: rat receptor expressed in mouse fibroblasts, [3H]-prazosin, read-out: Radioligand Binding Ki α1d (Rat).

As to `O=C(Nc1cccc2c1CCCC2c1c[nH]cn1)C(F)(F)F.O=C(O)/C=C\C(=O)O` (centres unmarked) [Example 17, 2,2,2-trifluoro-N-[5-(1H-imidazol-4-yl)-5,6,7,8-tetrahydro-1-naphthalenyl]acetamide, maleate], in data set [1] (setting [6]), the Ki was found to be 10 µM. Further, the ED (5 mm Hg) in the data set with anesthetized dogs [2] was determined as 0.188 µmol/kg. In addition, the “Mean MAP ED20” value with anesthetized dogs [3] was found to be 216 nmol/kg.

Take `O=S(=O)(C=Cc1ccccc1)Nc1cccc2c1CCCC2c1cnc[nH]1` (centres unmarked) [Example 70, N-[5-(1H-imidazol-5-yl)-5,6,7,8-tetrahydro-1-naphthalenyl]-2-phenyl-1-ethenesulfonamide]: the Ki in data set [4] was 0.43 µM; in data set [1] (setting [6]), 0.387 µM; in data set [5] (setting [7]) it was 0.353 µM. In addition, at α1A (rabbit urethra), the EC50 was 81.3 µM.

For the compound `COCCN(CCOC)C(=O)Nc1cccc2c1CCCC2c1c[nH]cn1` (centres unmarked) [Example 116, N′-[5-(1H-imidazol-4-yl)-5,6,7,8-tetrahydro-1-naphthalenyl]-N,N-bis(2-methoxyethyl)urea], the Ki in data set [4] was 2.98 µM; in data set [1] (setting [6]), 10 µM; in data set [5] (setting [7]), 10 µM. The EC50 at α1A (rabbit urethra) is 9.33 µM.

Regarding `C=C(c1cccc(NS(=O)(=O)CC)c1)c1c[nH]cn1.O=C(O)/C=C\C(=O)O` [Example 45, N-{3-[1-(1H-imidazol-4-yl)vinyl]phenyl}ethanesulfonamide, Maleate], in the data set on anesthetized dogs [2], the ED (5 mm Hg) stood at 0.273 µmol/kg. For the same compound, in the data set with anesthetized dogs [3], the “Mean MAP ED20” value is on record as 633 nmol/kg.

As to `CCS(=O)(=O)Nc1cc(F)cc2c1OCCC2c1c[nH]cn1.O=C(O)/C=C\C(=O)O` (centres unmarked) [Example 80, N-[6-fluoro-4-(1H-imidazol-4-yl)-3,4-dihydro-2H-chromen-8-yl]ethanesulfonamide, Maleate], the values for the Ki in data set [4], in data set [1] (setting [6]) and in data set [5] (setting [7]) were 0.378 µM, 10 µM and 1.59 µM, respectively. In the data set on anesthetized dogs [2], the ED (5 mm Hg) turned out to be 0.113 µmol/kg. Further, the “Mean Selectivity Ratio MAP ED20/IUP ED5” value with anesthetized dogs [2] was found to be 1.12. Moreover, the “Mean MAP ED20” value in the data set on anesthetized dogs [3] came to 125.78 nmol/kg.

Compound `CCS(=O)(=O)Nc1cccc2c1CCCC2c1c[nH]cn1.O=C(O)/C=C\C(=O)O` (single isomer, unassigned; (-)) [Example 34, (−)-N-[5-(1H-imidazol-4-yl)-5,6,7,8-tetrahydro-1-naphthalenyl]ethanesulfonamide, Maleate] showed a melting point of 129 to 130 °C. For the same compound, the Ki in data set [1] (hamster receptor expressed in mouse fibroblasts, [3H]-prazosin, Maleate, read-out: Radioligand Binding Ki α1b (Hamster)) stood at 10 µM. Also, the “Mean MAP ED20” value in the data set on anesthetized dogs [3] (Maleate) is listed as more than 1000 nmol/kg.

On to `CN(c1cccc2c1CCCC2c1c[nH]cn1)S(C)(=O)=O.O=C(O)/C=C\C(=O)O` (centres unmarked) [Example 15, N-[5-(1H-imidazol-4-yl)-5,6,7,8-tetrahydro-1-naphthalenyl]-N-methylmethanesulfonamide, Maleate], for which the Ki in data set [1] (setting [6]) was 10 µM. Further, in the data set with anesthetized dogs [2], the ED (5 mm Hg) was found to be 0.0919 µmol/kg. The “Mean MAP ED20” value in the data set with anesthetized dogs [3] was 225 nmol/kg.

Regarding `CS(=O)(=O)Nc1cccc2c1CCC[C@@H]2c1c[nH]cn1` [Example 10, (−)-N-[(5S)-5-(1H-imidazol-4-yl)-5,6,7,8-tetrahydro-1-naphthalenyl]methanesulfonamide], the melting point was 118 to 123 °C. Moreover, in the data set with anesthetized dogs [2], the ED (5 mm Hg) is more than 1 µmol/kg. In the data set on anesthetized dogs [3], the “Mean MAP ED20” value is reported as more than 1000 nmol/kg.

As for `CCS(=O)(=O)Nc1cc(Cl)cc2c1CCCC2c1c[nH]cn1` (centres unmarked) [Example 132, N-[3-chloro-5-(1H-imidazol-4-yl)-5,6,7,8-tetrahydro-1-naphthalenyl]ethanesulfonamide], the Ki was found to be 0.047 µM in data set [4], 10 µM in data set [1] and 0.367 µM in data set [5]. Also, in the data set on anesthetized dogs [2], the ED (5 mm Hg) was determined as 0.019 µmol/kg. Besides, in the data set with anesthetized dogs [2], the “Mean Selectivity Ratio MAP ED20/IUP ED5” value was 2.5. Moreover, the “Mean MAP ED20” value with anesthetized dogs [3] is reported as 47.7 nmol/kg.

On to `CS(=O)(=O)Nc1ccc(F)c2c1CCCC2c1c[nH]cn1.O=C(O)/C=C\C(=O)O` (centres unmarked) [Example 44, N-[4-fluoro-5-(1H-imidazol-4-yl)-5,6,7,8-tetrahydro-1-naphthalenyl]methanesulfonamide, Maleate], for which the melting point was in the range of 182 to 186 °C. Further, in data set [1] (setting [6]), the Ki amounted to 10 µM. Moreover, in the data set with anesthetized dogs [2], the ED (5 mm Hg) came to 0.892 µmol/kg. In the data set with anesthetized dogs [3], the “Mean MAP ED20” value came out at 588 nmol/kg.
